Holding throughout (test): NCI anticancer screen, dose series, 48 h
In experiment [1] the test system is HCT-15.
The test system of experiment [2] is RXF 393.
Experiment [3] deals with OVCAR-5.
In experiment [4] the test system is OVCAR-4.
Experiment [5] deals with SR.
Experiment [6] relates to Hs-578T.
Experiment [7] concerns HL-60.
Experiment [8] relates to OVCAR-3.
The test system of experiment [9] is HCT-116.
In experiment [10] the test system is Malme-3M.
Experiment [11] concerns OVCAR-8.
Experiment [12] deals with HT-29.
In experiment [13] the test system is SK-OV-3.
Experiment [14] concerns TK-10.
In experiment [15] the test system is K562.
In experiment [16] the test system is A498.
In experiment [17] the test system is UACC-257.
In experiment [18] the test system is T47D.
Experiment [19] concerns SK-MEL-28.
Experiment [20] relates to MDA-MB-231.

Each structure is given as a SMILES string.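 Where inhibition never reached the appropriate level, the endpoint shown equals the highest concentration tested. Otherwise, values were interpolated linearly from a five-concentration, 48-hour dose response in 96-well plates. GI50: concentration for 50% inhibition of growth.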 Activity calls are given as the source filed them. Rule as the data show it: active = GI50 up to about 1.1 µM and inactive = higher. Some results are limits rather than exact numbers.

Consider `CCOC(=O)c1c(C)c(C)n2c1NC(=O)C2`, for which the GI50 in experiment [1] was greater than 61.1 µM; in experiment [2], > 40.4 µM (inactive); in experiment [3], > 100 µM (inactive); in experiment [4], > 100 µM (inactive); in experiment [5], 37.2 µM (inactive); in experiment [6], 20.3 µM (inactive). The GI50 in [7] was > 100 µM (inactive); in experiment [8], > 64.4 µM (inactive); in [9], 36.6 µM (inactive); in experiment [10], > 50.7 µM (inactive); in experiment [11], > 70.3 µM (inactive); in experiment [12] it was > 74.3 µM (inactive). Also, the GI50 was > 100 µM (inactive) in [13]; > 55.8 µM (inactive) in [14]; > 100 µM (inactive) in experiment [15]; > 100 µM (inactive) in experiment [16]; > 60 µM (inactive) in [17]; 21.1 µM (inactive) in [18]. Also, the GI50 is > 100 µM (inactive) in [19] and 39 µM (inactive) in experiment [20].
Regarding `COc1ccc(C(=O)/C=C2\C(=O)Nc3ccc(Br)cc32)cc1`, the GI50 in experiment [1] was 2.13 µM; in experiment [2] it was 2.29 µM (inactive); in experiment [3], 19.3 µM (inactive); in [4] it was 16.5 µM (inactive); in experiment [5], 2.96 µM (inactive); in [6], 13.8 µM (inactive). Further, the GI50 was 1.99 µM (inactive) in experiment [7]; 2.97 µM (inactive) in [8]; 4.05 µM (inactive) in experiment [9]; 8.22 µM (inactive) in [10]; 2.07 µM (inactive) in [11]; 1.82 µM (inactive) in experiment [12]. Also, the GI50 in experiment [13] is 15.6 µM (inactive); in experiment [14], 1.68 µM (inactive); in experiment [15] it was 5.07 µM (inactive); in experiment [16], 17.9 µM (inactive); in [17], 11.3 µM (inactive); in experiment [18], 11.5 µM (inactive). Moreover, the figures for the GI50 in experiment [19] and in [20] were 10.5 µM (inactive) and 5.57 µM (inactive), respectively.
For the compound `Cc1ccc(S(=O)(=O)N/N=C2\CC3C4CCC3C2C4)cc1` (stereo not drawn), the GI50 in experiment [1] was greater than 100 µM; in experiment [2], > 100 µM (inactive); in [3] it was > 100 µM (inactive); in [4], > 100 µM (inactive); in experiment [5], > 100 µM (inactive); in [6], > 100 µM (inactive). The GI50 in experiment [7], in [8], in experiment [9], in [10], in experiment [11] and in experiment [12] was > 100 µM (inactive) throughout. Moreover, the GI50 in experiment [13], in experiment [14], in experiment [15], in experiment [16], in experiment [17] and in experiment [18] was > 100 µM (inactive) in each case. For the same compound, the GI50 in [19] and in experiment [20] was > 100 µM (inactive) in each case.
As to `COC(=O)C1=C(O)C(C(=O)OC)[C@]2(O)[C@H](C(=O)OC)[C@H]1C[C@@H](c1ccc(C(F)(F)F)cc1)[C@H]2C(=O)OC` (stereo partly drawn), the GI50 in experiment [1] was 2.82 µM; in experiment [2] it was 2.17 µM (inactive); in experiment [3], 3.63 µM (inactive); in experiment [4], 5.55 µM (inactive); in experiment [5], 2.56 µM (inactive); in experiment [6] it was 4.43 µM (inactive). Moreover, the GI50 in experiment [7] was 5.48 µM (inactive); in [8] it was 3.78 µM (inactive); in experiment [9] it was 2.54 µM (inactive); in experiment [10], 3.78 µM (inactive); in experiment [11], 2.85 µM (inactive); in experiment [12], 4.68 µM (inactive). Besides, the GI50 in experiment [13] is 6.35 µM (inactive); in [14], 4.73 µM (inactive); in experiment [15] it was 2.62 µM (inactive); in experiment [16], 3.37 µM (inactive); in experiment [17], 4.6 µM (inactive); in [18] it was 3.44 µM (inactive). In addition, the GI50 is 4.89 µM (inactive) in [19] and 4.22 µM (inactive) in experiment [20].
As for `CC1=CN(c2ccccc2)S2=C1c1sc3c(c1N2c1ccc(Br)cc1)CCCC3` (stereo not drawn), the GI50 was greater than 100 µM in [1]; > 100 µM (inactive) in experiment [2]; 96.8 µM (inactive) in experiment [3]; > 100 µM (inactive) in experiment [4]; > 100 µM (inactive) in experiment [5]; > 100 µM (inactive) in experiment [6]. In addition, the GI50 in [7], in experiment [8], in experiment [9], in experiment [11], in experiment [12] and in [13] was > 100 µM (inactive) each time. Also, the GI50 in experiment [14] was > 100 µM (inactive); in [15], > 100 µM (inactive); in [16], > 100 µM (inactive); in [17] it was > 100 µM (inactive); in experiment [18], 91.2 µM (inactive); in experiment [19], > 100 µM (inactive). Further, the GI50 in [20] was > 100 µM (inactive).
For the compound `COc1cc2c3c4c1OCc1c5c(cc(c1-4)CC3[N+](C)(C)CC2)OCO5` (stereo not drawn), the GI50 in experiment [1] was greater than 100 µM; in experiment [2], > 100 µM (inactive); in experiment [3] it was > 100 µM (inactive); in experiment [4], > 100 µM (inactive); in experiment [5], 49.8 µM (inactive); in [6] it was 4.18 µM (inactive). The GI50 is > 100 µM (inactive) in [7]; > 89.9 µM (inactive) in experiment [8]; > 100 µM (inactive) in experiment [9]; 60.5 µM (inactive) in experiment [10]; > 72.9 µM (inactive) in [11]; > 100 µM (inactive) in experiment [12]. Further, the GI50 in [13] was > 100 µM (inactive); in experiment [14], > 100 µM (inactive); in experiment [15] it was > 86.9 µM (inactive); in experiment [16], > 100 µM (inactive); in [17], > 100 µM (inactive); in [18], > 100 µM (inactive). The GI50 in [19] and in experiment [20] was > 100 µM (inactive) in each case.
In the case of `CN(CCCn1ccnc1[N+](=O)[O-])CCCn1ccnc1[N+](=O)[O-]`, the GI50 in experiment [1] is greater than 100 µM; in [2], > 100 µM (inactive); in experiment [3] it was > 100 µM (inactive); in experiment [4], > 100 µM (inactive); in experiment [5], > 100 µM (inactive); in experiment [6], > 100 µM (inactive). Moreover, the GI50 in [7], in experiment [8], in [9], in experiment [10], in [11] and in experiment [12] was > 100 µM (inactive) each time. Also, the GI50 in [13], in experiment [14], in experiment [15], in experiment [16], in experiment [17] and in [18] was > 100 µM (inactive) throughout. For the same compound, the GI50 in experiment [19] and in experiment [20] was > 100 µM (inactive) in each case.
As for `Cc1ccc(SCC(CSCCO)OCn2cnc3c2N=C(N)NC32OCCO2)cc1` (stereo not drawn), the GI50 in experiment [1] was greater than 100 µM; in experiment [2], > 100 µM (inactive); in experiment [3] it was > 100 µM (inactive); in [4] it was > 100 µM (inactive); in experiment [5], > 100 µM (inactive); in experiment [6] it was > 100 µM (inactive). In addition, the GI50 in [7], in experiment [8], in experiment [9], in [10], in experiment [11] and in [12] was > 100 µM (inactive) each time. The GI50 in experiment [13], in experiment [14], in experiment [15], in [16], in experiment [17] and in experiment [18] was > 100 µM (inactive) each time. Further, the GI50 in experiment [19] and in experiment [20] was > 100 µM (inactive) in each case.
On to `COc1ccc(-n2c(C)nc3ccc(/N=C/c4ccccc4)cc3c2=O)cc1`, for which the GI50 in [1] was greater than 100 µM; in experiment [2] it was > 100 µM (inactive); in experiment [3] it was > 100 µM (inactive); in [4] it was > 100 µM (inactive); in [5], > 100 µM (inactive); in experiment [6] it was > 100 µM (inactive). For the same compound, the GI50 in experiment [7], in experiment [8], in [9], in experiment [10], in experiment [11] and in [12] was > 100 µM (inactive) throughout. Moreover, the GI50 in experiment [14], in experiment [15], in experiment [16], in [17], in [18] and in experiment [19] was > 100 µM (inactive) in each case. In addition, the GI50 in experiment [20] was > 100 µM (inactive).
As for `S=c1c2cc(I)ccc2nc(S)n1Cc1ccccc1`, the GI50 in experiment [1] is 3.78 µM; in experiment [2], 2.17 µM (inactive); in experiment [3], 17 µM (inactive); in [4], 3.62 µM (inactive); in experiment [5], 3.64 µM (inactive); in [6], 7.16 µM (inactive). In addition, the GI50 is 2.33 µM (inactive) in experiment [7]; 2.9 µM (inactive) in experiment [8]; 3.38 µM (inactive) in experiment [9]; 4.01 µM (inactive) in experiment [10]; 5.57 µM (inactive) in [11]; 18.4 µM (inactive) in experiment [12]. Further, the GI50 in experiment [13] was 4.1 µM (inactive); in [14], 4.55 µM (inactive); in [15], 3.54 µM (inactive); in experiment [16] it was 3.33 µM (inactive); in experiment [17] it was 2.44 µM (inactive); in experiment [18] it was 1.5 µM (inactive). Also, the GI50 in experiment [19] was 3.79 µM (inactive); in experiment [20], 6.37 µM (inactive).
